Measured values from patent US20030092770A1, “Combination therapy for treatment of depression” (priority 2002, published 2003).

System: mouse
Experiment: Forced Swim Test (FST) in the mouse
Format: in vivo
Method: The duration of immobility during the last four minutes of the six minute test period is scored. A mouse is recorded as immobile when floating motionless or making only those movements necessary to keep its head above water.
An augmentation of action would be reflected by a reduction in immobility that is greater than the arithimetic sum of the effect of each agent alone. […] Standard statistical tests can be used to determine if this difference is significant. The same general strategy can be applied to the forced swim test as carried out in rats (below) as well as the tail suspension test, also described below.

## CC(CNS(=O)(=O)C(C)C)c1ccc(-c2ccsc2)cc1 (stereo not shown) [Example 392098]
392098 alone, i.p., mice
  minimum effective dose (MED) in the Forced Swim Test: 0.5 mg/kg
392098 at a dose as low as 25 micrograms/kg combined with a subeffective dose of imipramine (5 mg/kg)
  immobility of the mouse in the Forced Swim Test: statistically significant reduction in immobility
392098 by itself, low doses (0.025-0.1 mg/kg), mice
  effect in the Forced Swim Test: no effect
Administered in combination with a subeffective dose of imipramine, Forced Swim Test, mice
  shift in the dose response curve of 392098: at least 20 fold
